Numbers after ± are expanded uncertainties.

The nature of data set [1]: xn = mol fraction of the nth substance listed. The settings on record: 298.15 K, 101 kPa, Liquid; for viscosity: Capillary tube (Ostwald / Ubbelohde) method; for mass density: Pycnometric method; for speed of sound: ultra sonice interferometer.
A short description of data set [2]: refractive index (Na D-line) (dimensionless); xn = mol fraction of the nth substance listed. The settings on record: 298.15 K, 101 kPa, Liquid, Standard Abbe refractometry.
For data set [3] the following is noted: 298.15 K, 101 kPa, Liquid.
A short description of data set [4]: refractive index (Na D-line) (dimensionless). The settings on record: 298.15 K; 101.33 kPa; Liquid; Standard Abbe refractometry.

Consider `CC(=O)OCCC(C)C` [3-methylbutyl ethanoate] + ClCCl, for which, in data set [1] (x2 = 0.6052), the viscosity amounted to 0.633 ± 0.008 mPa·s, the mass density came out at 1043.3 ± 0.6 kg/m3 and the speed of sound stood at 1115 ± 1 m/s. Also, in data set [2] (x2 = 0.6052), the refractive index came to 1.406 ± 0.001.
For `ClCCl` [dichloromethane] + CCCOC(C)=O, in data set [1] (x1 = 0.546), the viscosity amounted to 0.518 ± 0.007 mPa·s, the mass density is reported as 1053.5 ± 0.6 kg/m3 and the speed of sound worked out at 1181 ± 1 m/s. Moreover, the refractive index in data set [2] (x1 = 0.546) is 1.397 ± 0.001.
As for `ClCCl` [dichloromethane] + CCCCOC(C)=O, in data set [1] (x1 = 0.5777), the viscosity was found to be 0.575 ± 0.008 mPa·s, the mass density worked out at 1049.2 ± 0.6 kg/m3 and the speed of sound is recorded as 1181 ± 1 m/s. In addition, the refractive index in data set [2] (x1 = 0.5777) worked out at 1.403 ± 0.001.
Consider `ClCCl` [dichloromethane] + CCOC(C)=O, for which, in data set [1] (x1 = 0.5092), the viscosity came out at 0.456 ± 0.007 mPa·s, the mass density was 1059.2 ± 0.6 kg/m3 and the speed of sound is 1059 ± 1 m/s. In addition, the refractive index in data set [2] (x1 = 0.5092) was 1.388 ± 0.001.
Take `ClCCl` [dichloromethane] + COC(C)=O: in data set [1] (x1 = 0.4659), the viscosity is 0.425 ± 0.007 mPa·s, the mass density stood at 1078 ± 0.6 kg/m3 and the speed of sound is 1056 ± 1 m/s. In data set [2] (x1 = 0.4659), the refractive index was determined as 1.38 ± 0.001.
For `C1COCO1` [1,3-dioxolane], the viscosity in data set [3] (Capillary tube (Ostwald / Ubbelohde) method) stood at 0.588 ± 0.008 mPa·s. Also, in data set [3] (Pycnometric method), the mass density is recorded as 1057 ± 0.6 kg/m3. For the same compound, in data set [3] (ultra sonice interferometer), the speed of sound stood at 1339 ± 1 m/s. Also, in data set [4], the refractive index amounted to 1.398 ± 0.001.

For orientation: viscosity means the internal friction of a fluid under shear. A word on the mass density: it is the mass of a sample divided by its volume. One may read the speed of sound as how fast a sound wave travels through the sample. In general, refractive index refers to the speed of light in vacuum divided by its phase velocity in the sample.

The values are drawn from the NIST ThermoML archive (doi:10.1016/j.tca.2009.07.011).
